Test results reported in patent publication US20040254224A1, “Medicaments” (priority 2001, published 2004).

Target: HM74 (Homo sapiens, UniProt P49019)
Details: membranes from HM74-expressing HEK293T cells, co-expressed with Go1α
Procedure: HEK293T cells (HEK293 cells stably expressing the SV40 large T-antigen) were maintained in DMEM containing 10% (v/v) foetal calf serum and 2 mM glutamine. Cells were seeded in 60 mm culture dishes and grown to 60-80% confluency (18-24 h) prior to transfection with pCDNA3 containing the relevant DNA species using Lipofectamine reagent. For transfection, 3 μg of DNA was mixed with 10 μl of Lipofectamine in 0.2 ml of Opti-MEM (Life Technologies Inc.) and was incubated at room temperature for 30 min prior to the addition of 1.6 ml of Opti-MEM. Cells were exposed to the Lipofectamine/DNA mixture for 5 h and 2 ml of 20% (v/v) newborn calf serum in DMEM was then added. Cells were harvested 48-72 h after transfection.
Plasma membrane-containing P2 particulate fractions were prepared from cell pastes frozen at −80° C. after harvest. All procedures were carried out at 4° C. Cell pellets were resuspended in 1 ml of 10 mM Tris-HCl and 0.1 mM EDTA, pH 7.5 (buffer A) and by homogenisation for 20 s with a polytron homogeniser followed by passage (5 times) through a 25-guage needle. Cell lysates were centrifuged at 1,000 g for 10 min in a microcentrige to pellet the nuclei and unbroken cells and P2 particulate fractions were recovered by microcentrifugation at 16,000 g for 30 min. P2 particulate fractions were resuspended in buffer A and stored at −80° C. until required.

HM74, sequence (P49019 whole entry): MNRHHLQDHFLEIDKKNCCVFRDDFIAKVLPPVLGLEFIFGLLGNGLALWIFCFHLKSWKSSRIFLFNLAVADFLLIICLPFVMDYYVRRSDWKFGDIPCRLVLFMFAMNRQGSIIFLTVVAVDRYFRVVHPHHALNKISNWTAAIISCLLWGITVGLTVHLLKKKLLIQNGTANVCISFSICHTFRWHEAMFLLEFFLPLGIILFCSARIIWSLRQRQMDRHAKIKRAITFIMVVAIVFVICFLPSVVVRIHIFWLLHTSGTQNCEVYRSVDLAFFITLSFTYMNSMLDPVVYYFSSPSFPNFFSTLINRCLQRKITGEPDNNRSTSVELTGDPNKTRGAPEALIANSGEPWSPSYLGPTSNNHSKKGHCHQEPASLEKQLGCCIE

Compound: O=C(O)CNC(=O)c1cccnc1 [nicotinuric acid]
- stimulation of [35S]GTPγS binding: not found to alter basal
